# Laboratory results as given in patent US10232023B2, “Methods for treatment of and prophylaxis against inflammatory disorders” (THE UNIVERSITY OF UTAH RESEARCH FOUNDATION, priority 2013, dated 2019).
# “Also recorded” adds a separate entry of the source.
# Columns and labels:
# [1] = tested on: LPS-stimulated PMNs; test: NET formation by LPS-stimulated adult human PMNs (live cell imaging, histone H3 release); assay type: cell-based; details: healthy adult PMNs; peptide/protein pre-incubation 1 hour (1 nM where stated); LPS 100 ng/mL
# Procedure: PMNs from healthy adult donors and from 28 day old preterm infants were pre-incubated for one hour with thawed cord blood plasma from that particular preterm infant or with autologous plasma collected that day from either the preterm infant peripheral blood sample or the blood sample from the healthy adult. NET formation was then assessed in vitro following LPS-stimulation (100 ng/mL) for 2 hours.
# (§1) Human PMNs isolated from healthy adult donors were stimulated with LPS (100 ng/mL) or phorbal-12-mystirate (PMA; 20 nM), ±nNIF (1 nM) or CRISPP (1 nM), pre-incubation (1 hour). Scrambled control peptide (SCR) generated using the identical amino acid content as CRISPP but linked in a random order was used as a control. NET formation was assessed 2 hours after stimulation.
# (§2) Briefly, primary PMNs isolated from preterm infants, healthy term infants, and healthy adults (2×10^6 cells/mL) were incubated with control buffer or stimulated with LPS (100 ng/mL), PMA (20 nM), or S. aureus bacteria (MOI 100) for 1 hour at 37° C. in 5% CO2/95% air on glass coverslips coated with poly-L-lysine. For selected experiments, primary PMNs were pre-incubated with autologous plasma, cord blood plasma, nNIF (1 nM), CRISPP (1 nM), or SCR (1 nM) for 1 hour prior to imaging. After pre-incubation and/or stimulation, PMNs were gently washed with PBS and incubated with a mixture of cell permeable (SYTO Green, MOLECULAR PROBES) and impermeable (SYTOX Orange, MOLECULAR PROBES) DNA fluorescent dyes. Confocal microscopy was accomplished using a FV300 1×81 Microscope and FLUOVIEW software (OLYMPUS). Both 20× and 60× objectives were used. Z-series images were obtained at a step size 1 μm over a range of 20 μm for each field. OLYMPUS FLUOVIEW and ADOBE PHOTOSHOP CS2 software were used for image processing.
# (§3) Supernatant total histone H3 content was determined as previously referenced in McInturff et al., Blood, 2012, 120: 3118-3125. After live cell imaging of control and stimulated primary PMNs (2×10^6/mL; various agonists), the cells were incubated with PBS containing DNase (40 U/mL) for 15 minutes at room temperature to break down and release NETs formed in response to stimulation. The supernatant was gently removed and centrifuged at 420×g for 5 minutes. The cell-free supernatant was then mixed 1:3 with 4× Laemmli buffer prior to western blotting. A polyclonal primary antibody against human histone H3 protein (CELL SIGNALING TECHNOLOGY) and infrared secondary antibodies (LI-COR BIOSCIENCES) were used. Imaging and densitometry were performed on the ODYSSEY™ infrared imaging system (LI-COR BIOSCIENCES).
# To determine whether the 29 amino acid peptide identified in Example 5 were the substances circulating in umbilical cord blood responsible for the inhibition of NET formation, cord blood plasma was depleted of nNIF via affinity purification using the carboxy-terminus AAT antibody. nNIF was then eluted from the column and used in experiments to assess the NET-inhibitory activity of unaltered cord blood plasma, nNIF-depleted cord blood plasma, and affinity purified nNIF from cord blood plasma. As a control, recombinant AAT in nNIF-depleted cord blood was also assessed (see FIGS. 5A-5F).
# Cord blood plasma depleted of both nNIF and full length AAT was collected as were the peptides captured by affinity purification for use in in vitro assays of NET formation. Full length, enzymatically active AAT (SIGMA) was also resuspended in elution buffer and tested in parallel.
# [2] = tested on: PMA-stimulated adult PMNs; test: NET formation by PMA-stimulated adult human PMNs; assay type: cell-based; details: pre-incubation 1 nM, 1 hour; PMA 20 nM
# Procedure: NET formation by PMA-stimulated adult PMNs with or without CRISPP pre-incubation was assessed.
# as §1, §2, §3
# [3] = tested on: human PMNs incubated with dengue virus; test: Dengue virus-induced NET formation by human PMNs; assay type: cell-based; details: pretreatment 1 nM, 1 hour; dengue virus 0.05 MOI
# Procedure: Mock incubation using dengue virus media without infection served as a control. Dengue virus induced NET formation by PMNs from human adults.
# Primary PMNs isolated from healthy adults (2×10^6 cells/mL) were incubated with mock infection buffer or live dengue virus (MOI 0.05), as for the live cell imaging discussed above. After a 1 hour incubation, the infected PMNs were fixed with 2% p-FA for 10 minutes prior to incubation with fluorescently-labeled, cell permeable and cell impermeable DNA dyes, and imaged as for live cell imaging using confocal microscopy.
# [4] = tested on: C57BL6 mice, intraperitoneal injection of LPS; test: Survival after intraperitoneal LPS; assay type: in vivo, mouse; details: LPS 20 mg/kg IP; 10 mcg/kg/dose IP, 1 hour prior and 6 hours after; vs LPS+scrambled peptide, p=0.02
# Procedure: FIG. 10A is a graph tracking survival of C57BL6 mice in various treatment arms following intraperitoneal injection of LPS (20 mg/kg). CRISPP-treated mice (10 mcg/kg/dose) received 2 doses intraperitoneally; one given 1 hour prior to infection and one dose given 6 hours after infection. The same dose, delivery route, and schedule were followed for the scrambled peptide control mice. Six mice were assessed in both groups.
# Survival of outbred Swiss mice was tracked in various treatment arms following intraperitoneal injection of either LPS (20 mg/kg) or E. coli (4×10^7 bacteria), as shown in FIGS. 10A and 10B. […] Six mice were assessed in both groups: LPS+CRISPP and LPS+scrambled control peptide. […] Ten mice were assessed in each group: no treatment, E. coli+CRISPP, and E. coli+scrambled control peptide. […] Referring to FIG. 11, CRISPP was also evaluated in a murine model of polymicrobial infection caused by cecal ligation and puncture (CL/P). […] Ten mice were assessed in each of the CL/P groups. […]
# Animals were treated with CRISPP (10 mg/kg), nNIF (10 mg/kg), or SCR (10 mg/kg) by i.p. injection 1 hour prior to and 6 hours after infection (E. coli, 4.5×10^7 cfu/mouse, i.p. injection) or stimulation (LPS, 25 mg/kg, i.p. injection). […] Survival was assessed over 6 days at 6 hour to 12 hour intervals.
# [5] = tested on: Mature ewe PMNs; test: NET formation by sheep PMNs; assay type: cell-based
# Text: Referring to FIGS. 13A and 13B, PMNs from preterm lamb cord blood and from mature ewes were isolated.
# [6] = tested on: LPS-stimulated human PMNs; test: Reactive oxygen species generation, dihydrorhodamine assay; assay type: cell-based; details: 1 nM, 1 hour pre-incubation; LPS 100 ng/mL
# Procedure: Human PMNs isolated from healthy adult whole blood were resuspended to a concentration of 2×10^6 cells/mL in M-199 media and pre-incubated±[…] (1 nM) or SCR (1 nM) peptide for 1 hour under standard conditions. The PMNs were then stimulated with LPS (100 ng/mL) for 1 hour, washed, and resuspended with a dihydrorhodamine (7.25 mM; D-632, MOLECULAR PROBES) and catalase (1000 Units/mL; C-40, SIGMA) mixture and incubated at 37° C. for 10 minutes. After incubation, samples were placed at 4° C. and analyzed for ROS-dependent fluorescence using a BECTON-DICKINSON FACSCAN device equipped with CELLQUEST software.
substance,measurement,setting,value
"Cancer-Associated SCM-Recognition, Immune Defense Suppression, and Serine Protease Protection Peptide [CRISPP, nNIF-related peptide (nNRP)]",NET formation by LPS-stimulated PMNs,[1],blocked NET formation by LPS-stimulated PMNs in a concentration dependent manner; also recorded: significantly inhibited NET formation
same,NET formation by PMA-stimulated PMNs,[2],significantly inhibited NET formation
same,NET formation induced by dengue virus,[3],completely blocked NET formation; also recorded: inhibited NET formation
same,Survival,[4],statistically greater
same,NET formation by LPS-stimulated sheep PMNs,"[5]; mature ewe PMNs, pre-treatment 1 hour, LPS 100 ng/mL",inhibited NET formation in a dose-dependent manner
same,NET formation by PMA-stimulated sheep PMNs,"[5]; sheep PMNs, PMA",inhibited NET formation
same,Reactive oxygen species generation,[6],did not significantly inhibit
